According to publication PMC6979384, “Characterization of the plant homeodomain (PHD) reader family for their histone tail interactions” (Epigenetics & Chromatin, 2020):
Entries after “also recorded” stand apart in the source; their conditions may differ. Where two headings read alike, the source gives them in different places.

Assays:
[1] = tested on: CHD4 (PPCC); test: dCypher AlphaScreen Phase B (full peptide screen); type: binding, human; conditions: reader 0.65 nM, 100 nM peptide, 23 °C, n = 2
Procedure: X-axes are log(protein concentration (M)) at constant peptide concentration (100 nM); Y-axes are AlphaScreen counts, representing relative strength of binding (n = 2; error bars are S.D.). i Heat map represents relative binding to H3 N-terminal peptides (left) by PHD-containing GST-tagged proteins (top) using the dCypher AlphaScreen platform. Protein concentrations can be found in Additional file 5: Table S4. Binding strength is indicated by color gradient from green to yellow (stronger to weaker). […] Alpha counts (n = 2) were normalized individually for each protein to the highest signal for each respective assay. For full dCypher peptide screen data, see Additional file 4: Table S3
(§1) Once the optimal protein concentration ranges for each of the eight readers were determined, we conducted the full dCypher peptide screen (293 histone peptides) (Fig. 3i; Additional file 4: Table S3).
The dCypher peptide screen assay was performed as previously described. Briefly, 5 μL of GST-tagged reader domains (optimal protein concentration for library screening determined by initial binding curves to candidate peptides) were incubated with 5 μL of 400 nM (100 nM Final) biotinylated histone peptides (EpiCypher) for 30 min at 23 °C in 1× AlphaLISA Epigenetics buffer + epigenetics buffer supplement (PerkinElmer, AL1008) in a 384-well plate. A 10 μL mix of 5 µg/mL (2.5 μg/mL final) glutathione Acceptor beads (PerkinElmer, AL109M) and 10 μg/mL (5 μg/mL final) streptavidin Donor beads (PerkinElmer, 6760002) was prepared in 1× [Epigenetics buffer + supplement] and added to each well. Plates were incubated at 23 °C in subdued lighting for 60 min and AlphaLISA signal measured on a PerkinElmer 2104 EnVision (680 nm laser excitation, 570 nm emission filter ± 50 nm bandwidth).
Supplementary file 13072_2020_328_MOESM4_ESM.xlsx: Additional file 4: Table S3. dCypher Results. Excel Tab Peptide Phase A is a compiled set of binding data: chromatin reader titration vs. several peptide targets. Data is presented as raw Alpha counts in duplicates at each concentration tested. Excel Tab Peptide Phase B is a compiled set of binding data: chromatin reader at optimized concentrations vs. entire 293 peptide library. Data is presented as the average and standard deviation of duplicates. […] Key: red = strong binding; blue = weak/no binding.

[2] = tested on: KDM5B (PHD3); test: PHD finger domain microarray; type: binding, human
From the text: (§2) To define the histone binding preferences of the PHD finger proteome, we expressed and purified 123 annotated human PHD-containing domains as GST-tagged recombinant fusions from E. coli. The recombinant proteins consisted of either PHD fingers in isolation, or as tandem domains if a given PHD finger was located adjacent to another reader domain (e.g., one or more PHD fingers, Tudor, chromo and/or bromodomains) (Additional file 1: Table S1). These GST fusions were printed in duplicate on nitrocellulose-coated microarray slides and probed with biotinylated peptides that represented the N-termini of H3, H4, H2A or H2B (Fig. 1a and Additional file 2: Figure S1). As the majority of PHD readers thus far characterized are H3K4me0/3 readers, we included additional peptides (H3K4 as either mono-, di-, or trimethylated) to further determine any H3K4 methyl preference (Additional file 2: Figure S2 and Fig. 1b). As a control, we also probed these microarrays with an α-Tubulin peptide (a.a. 30–50) that would not be predicted to interact with PHD fingers (Additional file 2: Figure S1). […] We also cannot exclude the possibility that some PHD fingers might not be functionally active on the microarrays (perhaps due to misfolding or the lack of an important adjacent region).
(§3) The protein domain microarray was designed to include 123 GST-tagged PHD-domain containing recombinant proteins. Protein domain microarray development and probing was as previously. Briefly, recombinant proteins were synthesized and cloned into pGEX-4T-1 vector by Biomatik Corporation. These GST-PHD readers were subsequently expressed, purified, and spotted in duplicate onto nitrocellulose-coated glass slides (Oncyte Avid slides, Grace Bio-Labs) using a pin arrayer (Aushon 2470, Aushon). For probing, microarray slides were blocked with 3% milk, 3% bovine serum albumin, 0.1% Tween 20 in PBS. Biotinylated peptides were pre-labeled with streptavidin-Cy3 fluorophore (GE Healthcare) and incubated with the blocked array slides. Slides were then washed with PBST and allowed to air dry. Fluorescent interactions were visualized using a GenePix 4200A Microarray Scanner (Molecular Devices).

[3] = tested on: CHD5 (PCC); test: PHD finger domain microarray; type: binding, human
From the text: as §2, §3

[4] = tested on: PHRF1 (RP); test: PHD finger domain microarray; type: binding, human
From the text: as §2, §3

[5] = tested on: PHD finger of MLL5; conditions: cited from earlier work
From the text: Our findings from domain and peptide microarray confirm the reported binding preferences of many PHD proteins such as those of the ING and PHF families. […] We surmise that the basis of this differenc ...

[6] = tested on: MLL5 PHD finger; test: PHD finger domain microarray; type: binding, human
From the text: as §2, §3

[7] = tested on: KDM5B (PHD3); conditions: cited from earlier work
From the text: While findings between the domain microarrays and peptide microarrays largely agreed, there were some interesting differences. […] It should be noted that the comparison made here is between the H3K4me3 + K9ac + K18ac and the H3K4me0 + K9ac + K18ac peptides. Due to the limited binding, if any, ...

[8] = tested on: CHD4; conditions: cited from earlier work
From the text: Plant homeodomain fingers comprise one of the largest families of reader domains, with over 100 human proteins containing this module. PHD fingers are Zn-coordinating domains that generally recognize unmodified or methylated lysines. To date, the majority of those characterized bind to histone H3 tails either methylated at K4 [7], or unmodified in that position (i.e., KDM5B PHD3 versus KDM5B PHD1 [10, 11] or PHF21A, also known as BHC80 [12]).

[9] = tested on: H3K4me0 readers; test: dCypher AlphaScreen Phase B (full peptide screen), H3K4me0 readers together; type: binding, human; conditions: 100 nM peptide, 23 °C, n = 2
Procedure: Fig. 3 dCypher histone peptide-binding assays define the PTM recognition preference of PHD proteins with high sensitivity. a–h Binding curves to determine optimal reader protein concentration for full peptide library screening on the dCypher® AlphaScreen® platform (see “Methods”). X-axes are log(protein concentration (M)) at constant peptide concentration (100 nM); Y-axes are AlphaScreen counts, representing relative strength of binding (n = 2; error bars are S.D.). i Heat map represents relative binding to H3 N-terminal peptides (left) by PHD-containing GST-tagged proteins (top) using the dCypher AlphaScreen platform. Protein concentrations can be found in Additional file 5: Table S4. […]
as §1
The dCypher peptide screen assay was performed as previously described. Briefly, 5 μL of GST-tagged reader domains (optimal protein concentration for library screening determined by initial binding curves to candidate peptides) were incubated with 5 μL of 400 nM (100 nM Final) biotinylated histone peptides (EpiCypher) for 30 min at 23 °C in 1× AlphaLISA Epigenetics buffer + epigenetics buffer supplement (PerkinElmer, AL1008) in a 384-well plate. […]

Row | Substance | binding preference [3] | binding preference [6] | binding [1] | binding preference [2] | reported binding [5] | also measured
1 | H3K4me3: H3 1-20 [Peptide H3K4me3] | no preference | strong preference |  | consistent with their current classification as H3K4me3 binders; also recorded: no preference | discrepancies in whether the PHD finger of MLL5 is a H3K4me3 or H3K4me2 reader | reported binding [7]: reported to bind H3K4me3; binding preference [4]: no preference
2 | H3K9me3: H3 1-20 [Peptide H3K9me3] |  |  | ability to bind to the peptides containing H3K9me3 |  |  | reported binding [8]: annotated to recognize H3K9me3; also recorded: reported as readers of H3K9 trimethylation
3 | H3S10p: H3 1-20 [Peptide H3S10p] |  |  |  |  |  | loss of binding on S10 phosphorylation [9]: this phenomenon is also observed

Now from value to substance, other results behind:

Row | binding preference [3] | binding preference [6] | Substance | binding [1] | binding preference [2] | reported binding [5] | also measured
4 | no preference |  | H3 (1-20): unmodified H3 N-terminal peptide (1–20) | clearer specificity for the H3K4me0 peptide over the methylated species | no preference |  | binding preference ([4]; listed as H3K4me0): no preference on the domain array; binding preference ([4]; listed as unmodified H3 tail): readers of the unmodified H3 tail
5 |  | strong preference | H3K4me2: H3 1-20 [Peptide H3K4me2] |  |  | discrepancies in whether the PHD finger of MLL5 is a H3K4me3 or H3K4me2 reader | 
